Where a name gives a salt, the structure may show the parent alone. Where only a bound is given, the exact number is not on record here.

The experiment concerns the target T1, human TRPC6 (Homo sapiens, UniProt Q9Y210).
T1 construct: expressed in transfected cells
T1 sequence (Q9Y210 1-931): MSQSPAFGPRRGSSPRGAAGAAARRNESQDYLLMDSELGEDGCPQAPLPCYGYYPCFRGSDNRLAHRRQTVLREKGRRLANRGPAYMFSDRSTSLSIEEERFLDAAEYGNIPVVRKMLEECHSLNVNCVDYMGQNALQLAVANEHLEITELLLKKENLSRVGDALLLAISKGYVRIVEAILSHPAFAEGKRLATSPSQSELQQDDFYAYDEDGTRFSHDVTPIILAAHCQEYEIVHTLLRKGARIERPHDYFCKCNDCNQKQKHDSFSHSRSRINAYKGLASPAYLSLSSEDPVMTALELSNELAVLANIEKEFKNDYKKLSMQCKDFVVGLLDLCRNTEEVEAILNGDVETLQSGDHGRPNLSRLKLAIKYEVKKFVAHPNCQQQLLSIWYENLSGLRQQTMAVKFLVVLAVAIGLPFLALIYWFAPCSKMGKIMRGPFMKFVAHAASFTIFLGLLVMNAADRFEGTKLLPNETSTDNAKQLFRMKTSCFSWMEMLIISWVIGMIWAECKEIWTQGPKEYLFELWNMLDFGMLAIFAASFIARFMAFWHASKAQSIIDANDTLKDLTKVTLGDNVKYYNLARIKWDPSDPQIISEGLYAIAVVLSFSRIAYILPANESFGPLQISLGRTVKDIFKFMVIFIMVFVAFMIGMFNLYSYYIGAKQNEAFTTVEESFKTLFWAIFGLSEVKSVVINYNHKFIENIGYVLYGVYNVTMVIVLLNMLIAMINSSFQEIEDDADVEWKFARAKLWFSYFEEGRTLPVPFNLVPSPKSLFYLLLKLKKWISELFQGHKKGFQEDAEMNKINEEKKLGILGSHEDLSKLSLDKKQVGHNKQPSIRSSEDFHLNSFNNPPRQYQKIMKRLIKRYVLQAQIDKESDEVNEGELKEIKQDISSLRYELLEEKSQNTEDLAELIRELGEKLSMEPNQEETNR
As to the kind of experiment: TRPC6 calcium flux assay (FLIPR, OAG-stimulated calcium influx). The experiment is classed as cell-based. As to conditions: HEK293 cells stably transfected with human TRPC6, read-out: hTRPC6 Potency. In outline:
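HEK293 cells stably expressing human TRPC6, loaded with calcium dye 90–120 min at RT, then given compound for 25 min before OAG (50 uM final, 0.5% DMSO) in HEPES buffer pH 7.2 with 2 mM CaCl2. Background-subtracted FLIPR peak over 180 s normalized to OAG vs buffer; IC50 from dose plot.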
Consider `N#Cc1ccc(Cn2c(N3CC[C@H](F)[C@H](N)C3)nc3cc(F)ccc32)nc1` [Example 48, 6-((2-((3R,4S)-3-amino-4-fluoropiperidin-1-yl)-5-fluoro-1H-benzo[d]imidazol-1-yl)methyl)nicotinonitrile hydrochloride], for which the IC50 is 0.0022 µM. The result for `N[C@@H]1CN(c2nc3ccc(C(F)(F)F)cc3n2CC(=O)N2CCOCC2)CC[C@@H]1F` [Example 464, 2-(2-((3R,4S)-3-amino-4-fluoropiperidin-1-yl)-6-(trifluoromethyl)-1H-benzo[d]imidazol-1-yl)-1-morpholinoethan-1-one] reads 0.0631 µM.

`C[C@@H](c1cccc2cccnc12)n1c(N2CC[C@@H](F)[C@H](N)C2)nc2cc(F)c(F)cc21` [Example 262, (3R,4R)-1-(5,6-difluoro-1-((1S)-1-(8-quinolinyl)ethyl)-1H-benzimidazol-2-yl)-4-fluoro-3-piperidinamine]: the IC50 stood at 0.28 µM. As to `N[C@@H]1CN(c2nc3cc(F)c(F)cc3n2[C@@H]2CCN(C3CC3)C2=O)CC[C@H]1F` [Example 547, (R)-3-(2-((3R,4R)-3-amino-4-fluoropiperidin-1-yl)-5,6-difluoro-1H-benzo[d]imidazol-1-yl)-1-cyclopropylpyrrolidin-2-one], the IC50 was 0.0437 µM. Take `COc1cnc(Cn2c(N3CC[C@@H](F)[C@H](N)C3)nc3cc(F)ccc32)nc1` [Example 446, (3R,4R)-4-fluoro-1-(5-fluoro-1-((5-methoxypyrimidin-2-yl)methyl)-1H-benzo[d]imidazol-2-yl)piperidin-3-amine]: the IC50 turned out to be 0.034 µM.

Regarding `CN[C@@H]1CN(c2nc3ccc(F)cc3n2Cc2ccc(C#N)cn2)CCC1(F)F` [Example 432, (R)-6-((2-(4,4-difluoro-3-(methylamino)piperidin-1-yl)-6-fluoro-1H-benzo[d]imidazol-1-yl)methyl)nicotinonitrile], the IC50 was 0.00777 µM.

With `CN(C)C(=O)Cn1c(N2CC[C@@H](F)[C@H](N)C2)nc2cc(OC(F)(F)F)ccc21` [Example 474, 2-(2-((3R,4R)-3-amino-4-fluoropiperidin-1-yl)-5-(trifluoromethoxy)-1H-benzo[d]imidazol-1-yl)-N,N-dimethylacetamide], the IC50 stood at 0.411 µM. `N[C@@H]1CN(c2nc3cc(F)c(F)cc3n2CC(=O)N2CCC2)CC[C@H]1F` [Example 236, 2-(2-((3R,4R)-3-amino-4-fluoropiperidin-1-yl)-5,6-difluoro-1H-benzo[d]imidazol-1-yl)-1-(azetidin-1-yl)ethanone]: the IC50 came out at 0.0238 µM. As to `CN(C)C(=O)Cn1c(N2CC[C@@H](F)[C@H](N)C2)nc2cc(F)cc(F)c21` [Example 594, 2-(2-((3R,4R)-3-amino-4-fluoropiperidin-1-yl)-5,7-difluoro-1H-benzo[d]imidazol-1-yl)-N,N-dimethylacetamide], the IC50 is greater than 3.75 µM. The result for `N#Cc1ccc(Cn2c(N3CCC4(CNC4)C3)nc3ccccc32)nc1` [Example 97, 6-((2-(2,6-diazaspiro[3.4]octan-6-yl)-1H-benzo[d]imidazol-1-yl)methyl)nicotinonitrile] reads greater than 3.75 µM; that for `Cc1cc2nc(N3CC[C@@H](F)[C@H](N)C3)n(Cc3ccc(C#N)cn3)c2cc1Cl` [Example 112, 6-((2-((3R,4R)-3-amino-4-fluoro-1-piperidinyl)-6-chloro-5-methyl-1H-benzimidazol-1-yl)methyl)-3-pyridinecarbonitrile], 0.000281 µM. Turning to `N#Cc1ccc2nc(N3CC[C@@H](F)[C@H](N)C3)n(Cc3cnc(C#N)cn3)c2c1` [Example 249, 2-((3R,4R)-3-amino-4-fluoro-1-piperidinyl)-1-((5-cyano-2-pyrazinyl)methyl)-1H-benzimidazole-6-carbonitrile], the IC50 was 0.00765 µM. For the molecule `N[C@@H]1CN(c2nc3ccccc3n2Cc2ncc(F)cn2)CC[C@H]1F` [Example 188, (3R,4R)-4-fluoro-1-(1-((5-fluoropyrimidin-2-yl)methyl)-1H-benzo[d]imidazol-2-yl)piperidin-3-amine], the IC50 stood at 0.013 µM. As for `N#Cc1ccc2c(c1)CC[C@H]2n1c(N2CC[C@@H](F)[C@H](N)C2)nc2ccccc21` [Example 231, (R)-1-(2-((3R,4R)-3-amino-4-fluoropiperidin-1-yl)-1H-benzo[d]imidazol-1-yl)-2,3-dihydro-1H-indene-5-carbonitrile hydrochloride], the IC50 turned out to be 0.737 µM. In the case of `N#CCCN(C(=O)Cn1c(N2CC[C@@H](F)[C@H](N)C2)nc2cc(F)c(F)cc21)C1CCOCC1` [Example 656], the IC50 was greater than 3.75 µM. For `N#Cc1ccc(Cn2c(N3CC[C@H](F)[C@H](N)C3)nc3c(F)cc(F)cc32)nc1` [Example 65, 6-((2-((3R,4S)-3-amino-4-fluoropiperidin-1-yl)-4,6-difluoro-1H-benzo[d]imidazol-1-yl)methyl)nicotinonitrile], the IC50 is 0.000598 µM. `C[C@@H](c1ccc(C#N)cn1)n1c(N2CC[C@@H]3OCCN[C@H]3C2)nc2cc(F)cc(F)c21` [Example 273, 6-((1S)-1-(5,7-difluoro-2-((4aS,8aS)-hexahydro-2H-pyrido[4,3-b][1,4]oxazin-6(5H)-yl)-1H-benzimidazol-1-yl)ethyl)-3-pyridinecarbonitrile]: the IC50 was found to be 0.0137 µM. With `Cc1nnc(Cn2c(N3CC[C@@H](F)[C@H](N)C3)nc3c(F)cc(F)cc32)s1` [Example 552, (3R,4R)-1-(4,6-difluoro-1-((5-methyl-1,3,4-thiadiazol-2-yl)methyl)-1H-benzo[d]imidazol-2-yl)-4-fluoropiperidin-3-amine] the figure was 0.00651 µM; with `CC1(CN)CCN(c2nc3ccccc3n2Cc2ccc(C#N)cc2)C1` (racemic) [Example 164, 4-((2-(3-(aminomethyl)-3-methylpyrrolidin-1-yl)-1H-benzo[d]imidazol-1-yl)methyl)benzonitrile], 0.253 µM; with `CC1CN(C(=O)Cn2c(N3CC[C@@H](F)[C@H](N)C3)nc3cc(F)c(F)cc32)CCO1` (mixture of isomers) [Example 507], 0.102 µM. Consider `N#Cc1ccc(Cn2c(N3CCC(F)(F)C(N)C3)nc3ccc(F)cc32)cc1` (stereo in doubt) [Example 416, 4-((2-((3R)-3-amino-4,4-difluoro-1-piperidinyl)-6-fluoro-1H-benzimidazo-1-yl)methyl)benzonitrile], for which the IC50 turned out to be 0.00236 µM. On to `CC1(C)CCCN1C(=O)Cn1c(N2CC[C@@H](F)[C@H](N)C2)nc2cc(F)c(F)cc21` [Example 310, 2-(2-((3R,4R)-3-amino-4-fluoropiperidin-1-yl)-5,6-difluoro-1H-benzo[d]imidazol-1-yl)-1-(2,2-dimethylpyrrolidin-1-yl)ethan-1-one], for which the IC50 was determined as 0.765 µM. With `N[C@@H]1CN(c2nc3cc(F)c(F)cc3n2CC(=O)N(CCO)Cc2cccnc2)CC[C@H]1F` [Example 655, 2-(2-((3R,4R)-3-amino-4-fluoropiperidin-1-yl)-5,6-difluoro-1H-benzo[d]imidazol-1-yl)-N-(2-hydroxyethyl)-N-(pyridin-3-ylmethyl)acetamide] the figure was greater than 3.75 µM; with `Cn1ncc2c(Cn3c(N4CC[C@@H](F)[C@H](N)C4)nc4cc(F)c(F)cc43)cccc21` [Example 259, (3R,4R)-1-(5,6-difluoro-1-((1-methyl-1H-indazol-4-yl)methyl)-1H-benzimidazol-2-yl)-4-fluoro-3-piperidinamine], 1.43 µM; with `N#Cc1ccc(Cn2c(N3CCC(F)(F)[C@H](N)C3)nc3ccc(F)cc32)nc1` [Example 88, (R)-6-((2-(3-amino-4,4-difluoropiperidin-1-yl)-6-fluoro-1H-benzo[d]imidazol-1-yl)methyl)nicotinonitrile], 0.000643 µM. The result for `CN[C@H]1CCCN(c2nc3ccccc3n2CC(=O)N2CCC2)C1` [Example 266, 1-(1-azetidinyl)-2-(2-((3S)-3-(methylamino)-1-piperidinyl)-1H-benzimidazol-1-yl)ethanone] reads 15.8 µM; that for `Cc1nnc(Cn2c(N3CC[C@@H](F)[C@H](N)C3)nc3ccc(F)cc32)s1` [Example 561, (3R,4R)-4-fluoro-1-(6-fluoro-1-((5-methyl-1,3,4-thiadiazol-2-yl)methyl)-1H-benzo[d]imidazol-2-yl)piperidin-3-amine], 0.0198 µM; that for `C[C@H](c1ccc(Cl)c(Cl)c1)n1c(N2CC[C@@H](F)[C@H](N)C2)nc2cc(F)c(F)cc21` [Example 332, (3R,4R)-1-(1-((1R)-1-(3,4-dichlorophenyl)ethyl)-5,6-difluoro-1H-benzimidazol-2-yl)-4-fluoro-3-piperidinamine], 3.2 µM.

Values taken from patent publication US11332459B2 (TEIJIN PHARMA LIMITED, priority 2017, dated 2022).
